Test results: ChEMBL document CHEMBL4616720 (J Med Chem, 2020)
Active and inactive are the calls of the source. The calls are words filed in the database; no cut-off is given here.

Tests used:
SJSA-1 = test: Antiproliferative activity against human SJSA1 cells assessed as reduction in cell growth measured after 48 hrs by CCK8 assay; assay type: functional, cell-based; settings: SJSA-1, 48 h
HL-60 = test: Antiproliferative activity against human HL60 cells assessed as reduction in cell growth measured after 48 hrs by CCK8 assay; assay type: functional, cell-based; settings: HL-60, 48 h
MCF7 = test: Antiproliferative activity against human MCF7 cells assessed as reduction in cell growth measured after 48 hrs by CCK8 assay; assay type: functional, cell-based; settings: MCF7, 48 h
MCF-10A = test: Cytotoxicity against human MCF10A cells assessed as reduction in cell growth measured after 48 hrs by CCK8 assay; assay type: cell-based
A549 [1] = test: Induction of apoptosis in human A549 cells assessed as necrotic cells at 40 uM measured after 24 hrs by Annexin V-FITC/propidium iodide staining based FACSClibur flow cytometry analysis (reference value: 0.37 %); assay type: functional
A549 [2] = test: Induction of apoptosis in human A549 cells assessed as live cells at 40 uM measured after 48 hrs by Annexin V-FITC/propidium iodide staining based FACSClibur flow cytometry analysis (reference value: 95.5 %); assay type: functional
A549 [3] = test: Induction of apoptosis in human A549 cells assessed as late apoptotic cells at 40 uM measured after 48 hrs by Annexin V-FITC/propidium iodide staining based FACSClibur flow cytometry analysis (reference value: 3.63 %); assay type: functional
A549 [4] = test: Induction of apoptosis in human A549 cells assessed as necrotic cells at 40 uM measured after 48 hrs by Annexin V-FITC/propidium iodide staining based FACSClibur flow cytometry analysis (reference value: 0.49 %); assay type: functional
A549 [5] = test: Induction of apoptosis in human A549 cells assessed as induction of caspase-3 activation at 40 uM using Ac-DEVD-pNA as substrate preincubated for 24 hrs followed by substrate addition and measured after 2 hrs by microplate reader assay; assay type: functional, cell-based
[6] = biological target: T1, Protein deacetylase HDAC6 (Homo sapiens, UniProt Q9UBN7); test: Inhibition of HDAC6 (unknown origin) using Boc-Lys(Ac)-pNA as substrate preincubated for 20 mins followed by substrate addition and further incubated for 90 mins by fluorescence assay
T1 sequence (Q9UBN7 whole entry): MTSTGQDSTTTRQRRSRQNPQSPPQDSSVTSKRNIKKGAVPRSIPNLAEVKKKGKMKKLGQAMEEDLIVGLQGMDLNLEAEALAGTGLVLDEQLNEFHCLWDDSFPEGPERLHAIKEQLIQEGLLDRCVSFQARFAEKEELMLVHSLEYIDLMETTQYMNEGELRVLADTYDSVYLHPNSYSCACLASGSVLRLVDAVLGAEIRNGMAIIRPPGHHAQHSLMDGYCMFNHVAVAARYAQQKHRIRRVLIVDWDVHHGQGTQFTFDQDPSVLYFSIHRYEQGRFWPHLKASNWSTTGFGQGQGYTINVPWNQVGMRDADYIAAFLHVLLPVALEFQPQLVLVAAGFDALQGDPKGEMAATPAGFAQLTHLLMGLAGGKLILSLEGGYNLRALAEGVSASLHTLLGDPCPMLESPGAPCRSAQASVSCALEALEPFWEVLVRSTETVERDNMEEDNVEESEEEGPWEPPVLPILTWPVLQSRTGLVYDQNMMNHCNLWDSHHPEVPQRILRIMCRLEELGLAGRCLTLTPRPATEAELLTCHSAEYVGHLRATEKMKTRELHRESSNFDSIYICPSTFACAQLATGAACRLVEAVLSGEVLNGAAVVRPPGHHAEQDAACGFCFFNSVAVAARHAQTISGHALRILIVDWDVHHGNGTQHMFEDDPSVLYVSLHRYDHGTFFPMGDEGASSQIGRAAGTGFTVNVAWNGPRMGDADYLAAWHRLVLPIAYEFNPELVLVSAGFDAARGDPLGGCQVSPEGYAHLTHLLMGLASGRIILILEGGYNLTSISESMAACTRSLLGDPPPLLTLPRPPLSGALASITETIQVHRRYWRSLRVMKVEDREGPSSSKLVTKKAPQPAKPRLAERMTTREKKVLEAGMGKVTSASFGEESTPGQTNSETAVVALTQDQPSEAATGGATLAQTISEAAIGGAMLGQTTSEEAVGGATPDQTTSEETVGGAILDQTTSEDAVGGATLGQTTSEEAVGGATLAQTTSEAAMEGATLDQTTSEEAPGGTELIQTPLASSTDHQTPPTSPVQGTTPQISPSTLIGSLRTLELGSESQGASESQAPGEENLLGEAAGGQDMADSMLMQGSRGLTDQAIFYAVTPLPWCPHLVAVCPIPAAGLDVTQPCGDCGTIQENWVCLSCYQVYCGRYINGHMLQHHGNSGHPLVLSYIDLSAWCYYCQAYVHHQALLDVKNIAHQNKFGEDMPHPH

[7] = Terminal half life in Sprague-Dawley rat at 2 mg/kg, iv measured up to 24 hrs by LC-MS/MS analysis; assay type: ADME, organism-based; settings: in vivo, read-out: beta t1/2 (converted)
[8] = AUC (0 to infinity) in Sprague-Dawley rat at 20 mg/kg, po measured up to 24 hrs by LC-MS/MS analysis; assay type: ADME, organism-based; set-up: dose 20 mg/kg, route oral, time infinity; settings: in vivo
[9] = Oral bioavailability in Sprague-Dawley rat at 20 mg/kg measured up to 24 hrs by LC-MS/MS analysis; assay type: ADME, organism-based; settings: in vivo
HCT-116 [10] = test: Antitumor activity against human HCT116 cells xenografted in BALB/c nude mouse assessed as tumor growth inhibition at 25 mg/kg, ip administered every 3 days for 21 days and measured every second day for 21 days during compound dosing by digital caliper method relative to control; assay type: functional; settings: HCT-116, ip, read-out: TGI
HCT-116 [11] = test: Antitumor activity against human HCT116 cells xenografted in BALB/c nude mouse assessed as tumor growth inhibition at 50 mg/kg, ip administered every 3 days for 21 days and measured every second day for 21 days during compound dosing by digital caliper method relative to control; assay type: functional; settings: HCT-116, ip, read-out: TGI
[12] = Toxicity in BALB/c nude mouse xenografted with human HCT116 cells assessed as adverse effect at 25 to 50 mg/kg, ip administered every 3 days for 21 days; assay type: organism-based, HCT-116; settings: in vivo
[13] = Selectivity index, ratio of IC50 for human MCF10A cells assessed as reduction in cell growth measured after 48 hrs by CCK8 assay to IC50 for human A549 cells assessed as reduction in cell growth measured after 48 hrs by CCK8; assay type: toxicity; settings: MCF10A cells versus A549 cells, read-out: Ratio IC50
[14] = Selectivity index, ratio of IC50 for human MCF10A cells assessed as reduction in cell growth measured after 48 hrs by CCK8 assay to IC50 for human MCF7 cells assessed as reduction in cell growth measured after 48 hrs by CCK8; assay type: toxicity; settings: MCF10A cells versus MCF7 cells, read-out: Ratio IC50
[15] = Toxicity in KM mouse assessed as behavioral changes at <262 mg/kg, ip administered as single dose measured daily for 14 days; assay type: organism-based; settings: in vivo, 336 h
HCT-116 [16] = test: Antitumor activity against human HCT116 cells xenografted in ip dosed BALB/c nude mouse assessed as tumor growth inhibition administered every 3 days for 21 days and measured every second day for 21 days during compound dosing by digital caliper method; assay type: functional, organism-based

With `O=C(C[C@@H](CC1CCCC1)C(=O)N1CC2(CC2)C[C@H]1c1nc(-c2ccc(F)cc2C(F)(F)F)no1)NO` the IC50 (SJSA-1) was 1.94 µM, the IC50 (HL-60) was 2.02 µM and the IC50 (MCF7) was 4.65 µM. For the same molecule, the IC50 (MCF-10A) was 18.1 µM, the Activity (A549 [1]) was 1.12% and the Activity (A549 [2]) was 80.9%. The Activity (A549 [3]) was 5.55%, the Activity (A549 [4]) was 1.01% and the Activity (A549 [5]) was “inactive”. It also gave an IC50 [6] of over 10 µM, a half-life [7] of 3.7 h and an AUC [8] of 940 ng·h/mL. The F [9] was 23.5%, the inhibition in vivo at 25 mg/kg (HCT-116 [10]) was 64% and the inhibition in vivo at 50 mg/kg (HCT-116 [11]) was 72.5%. The Activity [12] was “Non-Toxic”, the selectivity ratio at 48 h [13] was 9 and the selectivity ratio at 48 h [14] was 9. For the same molecule, the Activity [15] was “Non-Toxic” and the TGI (HCT-116 [16]) was “Dose-dependent effect”.
